Test results as given in PubChem BioAssay (NCI).
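Grown in 96-well plates, cells were treated for 48 hours with each compound at five concentrations. Insufficient inhibition: endpoint recorded as highest concentration tested. GI50 is the concentration that inhibits growth by half. The concentration for full growth arrest is given as TGI.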

Key:
Test in all cases: NCI tumour cell line growth inhibition, 48 h
SK-MEL-5 melanoma = system: SK-MEL-5 melanoma
UACC-257 melanoma = system: UACC-257 melanoma
SK-MEL-28 melanoma = system: SK-MEL-28 melanoma
U251 CNS = system: U251 CNS
TK-10 renal = system: TK-10 renal
SK-OV-3 ovarian = system: SK-OV-3 ovarian
NCI-H522 lung = system: NCI-H522 lung
HCC-2998 colon = system: HCC-2998 colon
SF-539 CNS = system: SF-539 CNS
RXF 393 renal = system: RXF 393 renal
K-562 leukemia = system: K-562 leukemia
UACC-62 melanoma = system: UACC-62 melanoma
HOP-92 NSCLC = system: HOP-92 NSCLC
CAKI-1 renal = system: CAKI-1 renal
T-47D breast = system: T-47D breast
BT-549 breast = system: BT-549 breast
RPMI-8226 leukemia = system: RPMI-8226 leukemia
OVCAR-8 ovarian = system: OVCAR-8 ovarian
UO-31 renal = system: UO-31 renal
SNB-75 CNS = system: SNB-75 CNS
MALME-3M melanoma = system: MALME-3M melanoma
ACHN renal = system: ACHN renal
A549 NSCLC = system: A549 NSCLC
IGROV1 ovarian = system: IGROV1 ovarian
MDA-MB-231 breast = system: MDA-MB-231 breast
HL-60(TB) leukemia = system: HL-60(TB) leukemia
SR leukemia = system: SR leukemia
EKVX NSCLC = system: EKVX NSCLC
SN12C renal = system: SN12C renal
PC-3 prostate = system: PC-3 prostate
MOLT-4 leukemia = system: MOLT-4 leukemia
CCRF-CEM leukemia = system: CCRF-CEM leukemia
DU-145 prostate = system: DU-145 prostate
MCF7 breast = system: MCF7 breast
A498 renal = system: A498 renal
HOP-62 NSCLC = system: HOP-62 NSCLC
M14 melanoma = system: M14 melanoma
COLO 205 colon = system: COLO 205 colon
HT29 colon = system: HT29 colon
SK-MEL-2 melanoma = system: SK-MEL-2 melanoma
OVCAR-5 ovarian = system: OVCAR-5 ovarian
NCI/ADR-RES ovarian = system: NCI/ADR-RES ovarian
HS 578T breast = system: HS 578T breast
NCI-H460 lung = system: NCI-H460 lung
OVCAR-4 ovarian = system: OVCAR-4 ovarian
HCT-116 colon = system: HCT-116 colon
KM12 colon = system: KM12 colon
786-0 renal = system: 786-0 renal
MDA-MB-435 = system: MDA-MB-435
HCT-15 colon = system: HCT-15 colon
SF-268 CNS = system: SF-268 CNS
NCI-H226 lung = system: NCI-H226 lung
NCI-H23 lung = system: NCI-H23 lung
LOX IMVI melanoma = system: LOX IMVI melanoma
SW-620 colon = system: SW-620 colon
SNB-19 CNS = system: SNB-19 CNS
SF-295 CNS = system: SF-295 CNS

Molecule `CCCC(=O)NC(c1cccnc1)c1ccc2c(C)ccnc2c1O` (centres undefined) has a GI50 (SK-MEL-5 melanoma) of 1.69 µM, a TGI (SK-MEL-5 melanoma) of 3.65 µM and a GI50 (UACC-257 melanoma) of 2.46 µM. For the same molecule, the TGI (UACC-257 melanoma) was over 100 µM, the GI50 (SK-MEL-28 melanoma) was 2.3 µM and the TGI (SK-MEL-28 melanoma) was over 100 µM. The GI50 (U251 CNS) was 1.6 µM, the TGI (U251 CNS) was over 100 µM and the GI50 (TK-10 renal) was 3.13 µM. It also gave a TGI (TK-10 renal) of over 100 µM, a GI50 (SK-OV-3 ovarian) of 2.1 µM and a TGI (SK-OV-3 ovarian) of over 100 µM. For the same molecule, the GI50 (NCI-H522 lung) was 2.17 µM, the TGI (NCI-H522 lung) was over 100 µM and the GI50 (HCC-2998 colon) was 2.68 µM. The TGI (HCC-2998 colon) was over 100 µM, the GI50 (SF-539 CNS) was 1.74 µM and the TGI (SF-539 CNS) was over 100 µM. For the same molecule, the GI50 (RXF 393 renal) was 2.79 µM, the TGI (RXF 393 renal) was over 100 µM and the GI50 (K-562 leukemia) was 0.851 µM. It also gave a TGI (K-562 leukemia) of over 100 µM, a GI50 (UACC-62 melanoma) of 2.11 µM and a TGI (UACC-62 melanoma) of 20.4 µM. The GI50 (HOP-92 NSCLC) was 6.1 µM, the TGI (HOP-92 NSCLC) was over 100 µM and the GI50 (CAKI-1 renal) was 1.03 µM. It also gave a TGI (CAKI-1 renal) of over 100 µM, a GI50 (T-47D breast) of 1.29 µM and a TGI (T-47D breast) of over 100 µM. For the same molecule, the GI50 (BT-549 breast) was 3.93 µM, the TGI (BT-549 breast) was over 100 µM and the GI50 (RPMI-8226 leukemia) was 1.88 µM. The TGI (RPMI-8226 leukemia) was over 100 µM, the GI50 (OVCAR-8 ovarian) was 1.86 µM and the TGI (OVCAR-8 ovarian) was over 100 µM. The GI50 (UO-31 renal) was 0.548 µM, the TGI (UO-31 renal) was 41.3 µM and the GI50 (SNB-75 CNS) was 3.13 µM. For the same molecule, the TGI (SNB-75 CNS) was over 100 µM, the GI50 (MALME-3M melanoma) was 2.18 µM and the TGI (MALME-3M melanoma) was over 100 µM. For the same molecule, the GI50 (ACHN renal) was 0.651 µM, the TGI (ACHN renal) was over 100 µM and the GI50 (A549 NSCLC) was 2.15 µM. The TGI (A549 NSCLC) was over 100 µM, the GI50 (IGROV1 ovarian) was 1.87 µM and the TGI (IGROV1 ovarian) was over 100 µM. For the same molecule, the GI50 (MDA-MB-231 breast) was 2.23 µM, the TGI (MDA-MB-231 breast) was over 100 µM and the GI50 (HL-60(TB) leukemia) was 0.591 µM. For the same molecule, the TGI (HL-60(TB) leukemia) was 5.85 µM, the GI50 (SR leukemia) was 0.472 µM and the TGI (SR leukemia) was over 100 µM. The GI50 (EKVX NSCLC) was 0.892 µM, the TGI (EKVX NSCLC) was 20.2 µM and the GI50 (SN12C renal) was 2.37 µM. The TGI (SN12C renal) was over 100 µM, the GI50 (PC-3 prostate) was 2.54 µM and the TGI (PC-3 prostate) was over 100 µM. The GI50 (MOLT-4 leukemia) was 0.549 µM, the TGI (MOLT-4 leukemia) was over 100 µM and the GI50 (CCRF-CEM leukemia) was 0.568 µM. For the same molecule, the TGI (CCRF-CEM leukemia) was over 100 µM, the GI50 (DU-145 prostate) was 1.7 µM and the TGI (DU-145 prostate) was over 100 µM. For the same molecule, the GI50 (MCF7 breast) was 1.91 µM, the TGI (MCF7 breast) was over 100 µM and the GI50 (A498 renal) was 2.36 µM. For the same molecule, the TGI (A498 renal) was 16.8 µM, the GI50 (HOP-62 NSCLC) was 1.5 µM and the TGI (HOP-62 NSCLC) was over 100 µM. The GI50 (M14 melanoma) was 1.16 µM, the TGI (M14 melanoma) was over 100 µM and the GI50 (COLO 205 colon) was 1.27 µM. It also gave a TGI (COLO 205 colon) of over 100 µM, a GI50 (HT29 colon) of 2.21 µM and a TGI (HT29 colon) of over 100 µM. For the same molecule, the GI50 (SK-MEL-2 melanoma) was 7.09 µM, the TGI (SK-MEL-2 melanoma) was over 100 µM and the GI50 (OVCAR-5 ovarian) was 2.87 µM. For the same molecule, the TGI (OVCAR-5 ovarian) was over 100 µM, the GI50 (NCI/ADR-RES ovarian) was 0.442 µM and the TGI (NCI/ADR-RES ovarian) was 77.5 µM. For the same molecule, the GI50 (HS 578T breast) was 8.72 µM, the TGI (HS 578T breast) was over 100 µM and the GI50 (NCI-H460 lung) was 0.576 µM. It also gave a TGI (NCI-H460 lung) of over 100 µM, a GI50 (OVCAR-4 ovarian) of 0.995 µM and a TGI (OVCAR-4 ovarian) of over 100 µM. The GI50 (HCT-116 colon) was 0.538 µM, the TGI (HCT-116 colon) was over 100 µM and the GI50 (KM12 colon) was 2.28 µM. The TGI (KM12 colon) was over 100 µM, the GI50 (786-0 renal) was 2.08 µM and the TGI (786-0 renal) was over 100 µM. For the same molecule, the GI50 (MDA-MB-435) was 2.89 µM, the TGI (MDA-MB-435) was over 100 µM and the GI50 (HCT-15 colon) was 0.539 µM. It also gave a TGI (HCT-15 colon) of over 100 µM, a GI50 (SF-268 CNS) of 1.81 µM and a TGI (SF-268 CNS) of over 100 µM. It also gave a GI50 (NCI-H226 lung) of 2.75 µM, a TGI (NCI-H226 lung) of over 100 µM and a GI50 (NCI-H23 lung) of 2.54 µM. The TGI (NCI-H23 lung) was over 100 µM, the GI50 (LOX IMVI melanoma) was 0.697 µM and the TGI (LOX IMVI melanoma) was 11.7 µM. The GI50 (SW-620 colon) was 1.94 µM, the TGI (SW-620 colon) was over 100 µM and the GI50 (SNB-19 CNS) was 3.42 µM. For the same molecule, the TGI (SNB-19 CNS) was over 100 µM, the GI50 (SF-295 CNS) was 0.93 µM and the TGI (SF-295 CNS) was over 100 µM.
